The test system of one assay is MCF-7. The experiment in a line: cells. It is filed as cell-based, human. The note with it: Homo sapiens, read-out: IC50, MCF-7.
Assay [1] has as its system Staphylococcus aureus ATCC 6538P FDA 209P (Sa). In words: Antimicrobial serial microdilution, Sa. It is filed as cell-based. On the technique in general: In broth dilution the organism is exposed to a series of concentrations in liquid medium.
For assay [2], the system named is Bacillus cereus ATCC 10702 (Bc). The experiment in a line: Antimicrobial serial microdilution, Bc. It is filed as cell-based.
The subject of assay [3] is Enterococcus faecalis ATCC 29212 (Ef). The experiment in a line: Antimicrobial serial microdilution, Ef. The format is cell-based.
A further assay concerns MRSA-1. In words: Antimicrobial serial microdilution, MRSA-1. The format is cell-based, Staphylococcus aureus.
Another assay relates to MRSA-2. In words: Antimicrobial serial microdilution, MRSA-2. It is filed as cell-based, Staphylococcus aureus.
The subject of another assay is HuTu 80. In words: cells. The note with it: Homo sapiens, HuTu80, 48 h, read-out: IC50, HuTu 80.
The test system of the next assay is M-HeLa. The experiment in a line: cells. The note with it: Homo sapiens, 48 h, read-out: IC50, M-HeLa.
Another assay has as its system Chang Liver. The experiment in a line: cells. The note with it: Homo sapiens, 48 h, read-out: IC50, Chang Liver.
The next assay relates to PC3. The experiment in a line: cells. The format is cell-based. The note with it: Homo sapiens, read-out: IC50, PC3.
Another assay relates to T98G. In words: cells. The note with it: Homo sapiens, 48 h, read-out: IC50, T98G. The format is cell-based.
Another assay has as its system A375. The experiment in a line: cells. As to conditions: Homo sapiens, read-out: IC50, A375. It is filed as cell-based.
A further assay has as its system WI38. In words: cells. It is filed as cell-based. As to conditions: Homo sapiens, read-out: IC50, WI38.
Another assay deals with PANC-1. The experiment in a line: cells. The note with it: Homo sapiens, PANC-1, 48 h, read-out: IC50, PANC-1.
The next assay relates to A549. In words: cells. The note with it: Homo sapiens, A549, 48 h, read-out: IC50, A549.
Where [4] appears, read: serial microdilution, strain resistant to β-lactams and fluoroquinolones.
The mark [5] stands for this setting: serial microdilution, strain resistant only to β-lactams.
[6] abbreviates: A-375, cancer cell line, 48 h incubation, MTT.
Setting [7] is: WI-38, normal cell line, 48 h incubation, MTT.
[8] abbreviates: serial microdilution, Mueller-Hinton broth.

Here are results for twelve compounds from article PMC10145285, “Diverse Biological Activity of Benzofuroxan/Sterically Hindered Phenols Hybrids” (Pharmaceuticals, 2023).

SMILES strings stand for the structures. In brackets after ≈: the same amount, converted by molar mass. Where two headings read alike, the source gives them in different places.

For `COP(=O)(OC)C(c1cc(C(C)(C)C)c(O)c(C(C)(C)C)c1)c1ccc(N)nc1N` (stereo not drawn) [2a], the IC50 in the assay on MCF-7 (MCF7, 48 h) is 31 ± 2.6 µM; in the assay on HuTu 80 it was greater than 100 µM; in the assay on M-HeLa, 16.1 ± 1.3 µM; in the assay with Chang Liver, greater than 100 µM. For the same compound, the “Minimum Inhibitory Concentration (MIC), Sa” value in assay [1] was “-”. The “Minimum Inhibitory Concentration (MIC), Bc” value in assay [2] was “-”. In addition, the “Minimum Inhibitory Concentration (MIC), Ef” value in assay [3] is “-”. For the same compound, the “Minimum Inhibitory Concentration (MIC), MRSA-1” value with MRSA-1 (setting [4]) was “-”. The “Minimum Inhibitory Concentration (MIC), MRSA-2” value in the assay with MRSA-2 (setting [5]) is on record as “-”.
Take `CCOP(=O)(OCC)C(c1cc(C(C)(C)C)c(O)c(C(C)(C)C)c1)c1ccc(N)nc1N` (stereo not drawn) [2b]: the IC50 is 34.2 ± 3 µM in the assay with MCF-7 (MCF7, 48 h); 86.6 ± 6.8 µM in the assay with HuTu 80; 17.1 ± 1.3 µM in the assay on M-HeLa; greater than 100 µM in the assay on Chang Liver.
In the case of `CC(C)OP(=O)(OC(C)C)C(c1cc(C(C)(C)C)c(O)c(C(C)(C)C)c1)c1ccc(N)nc1N` (stereo not drawn) [2c], the IC50 with MCF-7 (MCF7, 48 h) is 21.8 ± 1.7 µM; in the assay with HuTu 80 it was greater than 100 µM; with M-HeLa, 38 ± 2.8 µM; in the assay with Chang Liver, greater than 100 µM. Also, the “Minimum Inhibitory Concentration (MIC), Sa” value in [1] is given as “-”. In [2], the “Minimum Inhibitory Concentration (MIC), Bc” value is on record as “-”. Moreover, in assay [3], the “Minimum Inhibitory Concentration (MIC), Ef” value is on record as “-”. In addition, the “Minimum Inhibitory Concentration (MIC), MRSA-1” value in the assay with MRSA-1 (setting [4]) is recorded as “-”. Besides, in the assay on MRSA-2 (setting [5]), the “Minimum Inhibitory Concentration (MIC), MRSA-2” value is recorded as “-”.
With `CC(C)(C)c1cc(C(c2ccc(N)nc2N)P(=O)(Oc2ccccc2)Oc2ccccc2)cc(C(C)(C)C)c1O` (stereo not drawn) [2d], the IC50 with MCF-7 (MCF7, 48 h) came out at 16 ± 1.2 µM; with HuTu 80, 63.2 ± 5.6 µM; in the assay on M-HeLa it was 7.4 ± 0.7 µM; in the assay with Chang Liver it was 52 ± 3.5 µM. Moreover, the “Minimum Inhibitory Concentration (MIC), Sa” value in [1] is reported as “-”. Further, in assay [2], the “Minimum Inhibitory Concentration (MIC), Bc” value was “-”. Further, the “Minimum Inhibitory Concentration (MIC), Ef” value in assay [3] was “-”. Besides, the “Minimum Inhibitory Concentration (MIC), MRSA-1” value in the assay on MRSA-1 is on record as “-”. The “Minimum Inhibitory Concentration (MIC), MRSA-2” value in the assay with MRSA-2 is “-”.
Take `COP(=O)(OC)C(c1cc(C(C)(C)C)c(O)c(C(C)(C)C)c1)c1ccc(N)cc1N` (stereo not drawn) [2e]: the IC50 with MCF-7 (MCF7, 48 h) is greater than 100 µM; in the assay on M-HeLa it was 45.3 ± 3.2 µM; in the assay on Chang Liver, greater than 100 µM.
Take `COP(=O)(OC)C(c1cc(C(C)(C)C)c(O)c(C(C)(C)C)c1)c1ccc(Nc2c([N+](=O)[O-])cc([N+](=O)[O-])c3no[n+]([O-])c23)nc1N` (stereo not drawn) [4a, 7-((6-amino-5-((3,5-di-tert-butyl-4-hydroxyphenyl)(dimethoxyphosphoryl)methyl)pyridin-2-yl)amino)-4,6-dinitrobenzo[c][1,2,5]oxadiazole 1-oxide]: the IC50 in the assay with PC3 (PC-3, 48 h) is 14 ± 1.2 µM; in the assay on MCF-7 (MCF7, 48 h), 7.6 ± 0.6 µM; with T98G it was 12.4 ± 1.2 µM; with A375 (A-375, 48 h), 13.5 ± 1.2 µM; in the assay with WI38 (WI-38, 48 h), 7.2 ± 0.6 µM; in the assay on HuTu 80, 5.2 ± 0.4 µM. Further, the IC50 with PANC-1 came to 20 ± 1.7 µM; with M-HeLa it was 4.2 ± 0.3 µM; in the assay on A549, 13.5 ± 1.2 µM; with Chang Liver, 12 ± 1.2 µM. The “Minimum Inhibitory Concentration (MIC), Sa” value in assay [1] was “-”. In addition, the “Minimum Inhibitory Concentration (MIC), Bc” value in assay [2] is recorded as “-”. Further, in assay [3], the “Minimum Inhibitory Concentration (MIC), Ef” value is “-”. For the same compound, the “Minimum Inhibitory Concentration (MIC), MRSA-1” value with MRSA-1 is given as “-”. In addition, in the assay with MRSA-2, the “Minimum Inhibitory Concentration (MIC), MRSA-2” value is given as “-”.
For the compound `CCOP(=O)(OCC)C(c1cc(C(C)(C)C)c(O)c(C(C)(C)C)c1)c1ccc(Nc2c([N+](=O)[O-])cc([N+](=O)[O-])c3no[n+]([O-])c23)nc1N` (stereo not drawn) [4b, 7-((6-amino-5-((3,5-di-tert-butyl-4-hydroxyphenyl)(diethoxyphosphoryl)methyl)pyridin-2-yl)amino)-4,6-dinitrobenzo[c][1,2,5]oxadiazole 1-oxide], the IC50 in the assay with PC3 (PC-3, 48 h) was found to be 11 ± 0.8 µM; in the assay on MCF-7 (MCF7, 48 h), 3.1 ± 0.2 µM; with T98G it was 8.3 ± 0.7 µM; in the assay with A375 (A-375, 48 h) it was 11.4 ± 0.9 µM; with WI38 (WI-38, 48 h) it was 5.3 ± 0.4 µM; in the assay on HuTu 80, 5.4 ± 0.3 µM. For the same compound, the IC50 in the assay with PANC-1 was found to be 5.3 ± 0.4 µM; in the assay with M-HeLa, 2.9 ± 0.2 µM; in the assay with A549, 9.3 ± 0.8 µM; with Chang Liver, 7 ± 1.5 µM.
Regarding `COP(=O)(OC)C(c1cc(C(C)(C)C)c(O)c(C(C)(C)C)c1)c1ccc(Nc2c([N+](=O)[O-])cc([N+](=O)[O-])c3no[n+]([O-])c23)cc1N` (stereo not drawn) [4e, 7-((3-amino-4-((3,5-di-tert-butyl-4-hydroxyphenyl)(dimethoxyphosphoryl)methyl)phenyl)amino)-4,6-dinitrobenzo[c][1,2,5]oxadiazole 1-oxide], the IC50 was 12.3 ± 1.1 µM in the assay with PC3 (PC-3, 48 h); 21.5 ± 1.8 µM in the assay on MCF-7 (MCF7, 48 h); 40.2 ± 3.1 µM in the assay on T98G; 53.1 ± 4.1 µM in the assay on A375 (A-375, 48 h); 25.7 ± 2.2 µM in the assay on WI38 (WI-38, 48 h); 17.1 ± 1.3 µM in the assay on HuTu 80. For the same compound, the IC50 is 17.4 ± 1.3 µM in the assay on PANC-1, 12 ± 1 µM with M-HeLa, 48.3 ± 3.7 µM in the assay with A549 and 14.3 ± 1.3 µM with Chang Liver.
For the compound `O=C(N[C@H](CO)[C@H](O)c1ccc([N+](=O)[O-])cc1)C(Cl)Cl` [Chloramphenicol, reference compound], the MIC in assay [1] (Staphylococcus aureus, serial microdilution, Mueller-Hinton broth, read-out: Minimum Inhibitory Concentration (MIC), Sa) worked out at 31.3 ± 2.2 µg/mL (≈ 96.9 µM); in assay [2] (Bacillus cereus, ATCC10702, serial microdilution, Mueller-Hinton broth, read-out: Minimum Inhibitory Concentration (MIC), Bc), 62.5 ± 5.4 µg/mL (≈ 193 µM); in [3] (Enterococcus faecalis, ATCC29212, serial microdilution, Mueller-Hinton broth, read-out: Minimum Inhibitory Concentration (MIC), Ef), 62.5 ± 5.2 µg/mL (≈ 193 µM). Also, the “Minimum bactericidal and fungicidal concentrations (MBC), (MFC), Sa” value in assay [1] (serial microdilution) is given as “-”. In [2] (serial microdilution), the “Minimum bactericidal and fungicidal concentrations (MBC), (MFC), Bc” value was “-”. Moreover, in [3] (serial microdilution), the “Minimum bactericidal and fungicidal concentrations (MBC), (MFC), Ef” value is reported as “-”. In addition, the “Minimum bactericidal and fungicidal concentrations (MBC), (MFC), MRSA-1” value with MRSA-1 (serial microdilution) is reported as “-”. Also, in the assay on MRSA-2 (serial microdilution), the “Minimum bactericidal and fungicidal concentrations (MBC), (MFC), MRSA-2” value is “-”.
Turning to `COc1cccc2c1C(=O)c1c(O)c3c(c(O)c1C2=O)C[C@@](O)(C(=O)CO)C[C@@H]3O[C@H]1C[C@H](N)[C@H](O)[C@H](C)O1` [DOX, doxorubicin, reference compound], the IC50 was determined as 0.4 ± 0.03 µM in the assay with MCF-7 (MCF7, cancer cell line, 48 h incubation, MTT); 2 ± 0.1 µM in the assay with T98G; 0.3 ± 0.02 µM in the assay with A375 (setting [6]); 0.4 ± 0.02 µM with WI38 (setting [7]); 0.2 ± 0.01 µM in the assay on HuTu 80; 2.2 ± 0.1 µM with PANC-1. Moreover, the IC50 turned out to be 2.1 ± 0.2 µM in the assay with M-HeLa, 0.7 ± 0.05 µM with A549 and 0.5 ± 0.04 µM in the assay with Chang Liver.
Regarding `CC(=O)N1CCN(c2ccc(OCC3COC(Cn4ccnc4)(c4ccc(Cl)cc4Cl)O3)cc2)CC1` (stereo not drawn) [Ketoconazole, reference compound], the “Minimum bactericidal and fungicidal concentrations (MBC), (MFC), Sa” value in assay [1] (serial microdilution) is given as “-”. Also, the “Minimum Inhibitory Concentration (MIC), Sa” value in assay [1] (setting [8]) is reported as “-”. In assay [2] (serial microdilution), the “Minimum bactericidal and fungicidal concentrations (MBC), (MFC), Bc” value is reported as “-”. Also, in assay [2] (setting [8]), the “Minimum Inhibitory Concentration (MIC), Bc” value is recorded as “-”. For the same compound, the “Minimum bactericidal and fungicidal concentrations (MBC), (MFC), Ef” value in assay [3] (serial microdilution) was “-”. Also, the “Minimum Inhibitory Concentration (MIC), Ef” value in [3] (setting [8]) is reported as “-”. The “Minimum bactericidal and fungicidal concentrations (MBC), (MFC), MRSA-1” value in the assay with MRSA-1 (serial microdilution) is given as “-”. The “Minimum Inhibitory Concentration (MIC), MRSA-1” value in the assay on MRSA-1 (setting [4]) was “-”. The “Minimum bactericidal and fungicidal concentrations (MBC), (MFC), MRSA-2” value with MRSA-2 (serial microdilution) is “-”. Moreover, the “Minimum Inhibitory Concentration (MIC), MRSA-2” value in the assay with MRSA-2 (setting [5]) is on record as “-”.
Consider `CNC(=O)c1cc(Oc2ccc(NC(=O)Nc3ccc(Cl)c(C(F)(F)F)c3)cc2)ccn1` [SF, sorafenib, reference compound], for which the IC50 in the assay with PC3 (PC-3, cancer cell line, 48 h incubation, MTT) is 11.3 ± 0.9 µM; with T98G, 8.6 ± 0.7 µM; in the assay with A375 (setting [6]) it was 6.8 ± 0.5 µM; in the assay on WI38 (setting [7]), 6.6 ± 0.5 µM; in the assay on PANC-1, 12 ± 1.1 µM; in the assay with A549 it was 25.2 ± 2.2 µM.

In general, IC50 refers to the midpoint of a concentration-inhibition curve.
